{"source": "patent US10335495B2", "about": "“Biomolecule conjugates” (CELGENE CORPORATION, priority 2014, dated 2019)", "origin": "cited, not measured here", "details": "versus methotrexate, daunorubicin, and vincristine", "data": [{"smiles": "COc1cc2cc(c1Cl)N(C)C(=O)C[C@H](OC(=O)[C@H](C)N(C)C(C)=O)[C@]1(C)O[C@H]1[C@H](C)[C@@H]1C[C@@](O)(NC(=O)O1)[C@H](OC)/C=C/C=C(\\C)C2", "note": "[Maytansine]", "values": [{"measurement": "more cytotoxic than conventional cancer chemotherapeutic agents", "result": "100- to 1000 fold"}]}]}
